Where two headings read alike, the source gives them in different places.
Test: Tissue half-life (t1/2) and Cmax in plasma, brain, kidney and liver after oral administration to CD-1 mice
Type: in vivo, mouse
Conditions: for half-life: male, mouse
Experimental: In vivo studies were conducted to observe the effect of the compounds of the invention in the subject animal. Male CD-1 mice, body weight of 20 grams at arrival, were used in these studies. Mice were given 30 mg/kg of compound in HPMC/Tween solution or suspension via oral gavage. Plasma, brain, and liver samples were collected at time periods of 1, 2, 4, 8, and 24 hours post dosing. One mouse was used per time point. Thus, a total of 5 mice were used for each compound tested. For sample collection, mice were euthanized with CO2. Blood samples were taken by cardiac puncture and kept on ice. Brain and liver samples were collected immediately after bleeding and the samples were kept on dry ice. For calculation of tissue half-lives (t1/2s), the terminal rate constant k was estimated by the absolute value of the slope of a log-linear regression of the terminal phase of the tissue concentration-time profile. The tissue half-life t1/2 is ln(2)/k.
The following table includes t1/2 data for plasma, brain, kidney, and liver obtained after oral administration.
Tissue Half-Life Data for Various Quinazolinone Compounds (PO)

[1] = brain t1/2, 30 mg/kg oral gavage (PO), read-out: Half-Lives (h) Brain (converted)
[2] = kidney t1/2, 30 mg/kg oral gavage (PO), read-out: Half-Lives (h) Kidney (converted)
[3] = liver t1/2, 30 mg/kg oral gavage (PO), read-out: Half-Lives (h) Liver (converted)
[4] = plasma t1/2, 30 mg/kg oral gavage (PO), read-out: Half-Lives (h) Plasma (converted)

Compound | half-life [1] [h] | half-life [2] [h] | half-life [3] [h] | half-life [4] [h] | Half-Lives (h) Brain (brain t1/2, 30 mg/kg oral gavage (PO)) [h] | Half-Lives (h) Liver (liver t1/2, 30 mg/kg oral gavage (PO)) [h] | Half-Lives (h) Plasma (plasma t1/2, 30 mg/kg oral gavage (PO)) [h]
COc1ccc(CCn2c(-c3cnccn3)nc3cc(NC(=N[C@H]4C[C@H]5C[C@@H]([C@@H]4C)C5(C)C)N4CCN[C@@H](CF)C4)ccc3c2=O)c(F)c1 [Example 251, (3R)-N-{3-[2-(2-fluoro-4-methoxyphenyl)ethyl]-4-oxo-2-pyrazin-2-yl-3,4-dihydroquinazolin-7-yl}-3-(fluoromethyl)-N′-[(1S,2S,3S,5R)-2,6,6-trimethylbicyclo[3.1.1]hept-3-yl]piperazine-1-carboximidamide] | 5.4 | 8.6 | 6.8 | 4 | – | – | –
COc1ccc(CCn2c(-c3cccnc3)nc3cc(NC(=N[C@H]4C[C@H]5C[C@@H]([C@@H]4C)C5(C)C)N4CCN[C@@H](CF)C4)ccc3c2=O)c(F)c1 [Example 248, (3R)-N-{3-[2-(2-fluoro-4-methoxyphenyl)ethyl]-4-oxo-2-pyridin-3-yl-3,4-dihydroquinazolin-7-yl}-3-(fluoromethyl)-N′-[(1S,2S,3S,5R)-2,6,6-trimethylbicyclo[3.1.1]hept-3-yl]piperazine-1-carboximidamide] | 14 | 11 | 6.2 | 5.3 | – | – | –
C[C@@H]1C(/N=C(/Nc2ccc3c(=O)n(CCc4ccc(Cl)cc4Cl)c(-c4cnccn4)nc3c2)N2CC(=O)N[C@@H](C)C2)C[C@H]2C[C@@H]1C2(C)C (stereo partly drawn) [Example 229, (3S)-N-{3-[2-(2,4-dichlorophenyl)ethyl]-4-oxo-2-pyrazin-2-yl-3,4-dihydroquinazolin-7-yl}-3-methyl-5-oxo-N′-[(1S,2S3S,5R)-2,6,6-trimethylbicyclo[3.1.1]hept-3-yl]piperazine-1-carboximidamide] | 13 | – | 16 | 9 | – | – | –
COc1ccc(CCn2c(-c3cccnc3)nc3cc(N/C(=N/C4C[C@H]5C[C@@H]([C@@H]4C)C5(C)C)N4CCN(C#N)[C@@H](C)C4)ccc3c2=O)c(F)c1 (stereo partly shown) [Example 246] | 5.8 | 3.1 | 18 | 5.7 | – | – | –
COc1ccc(CCn2c(-c3cccnc3)nc3cc(NC(=N[C@H]4C[C@H]5C[C@@H]([C@@H]4C)C5(C)C)N4CC(=O)N[C@@H](C)C4)ccc3c2=O)c(F)c1 [Example 216, (3S)-N-{3-[2-(2-fluoro-4-methoxyphenyl)ethyl]-4-oxo-2-pyridin-3-yl-3,4-dihydroquinazolin-7-yl}-3-methyl-5-oxo-N′-[(1S,2S,3S,5R)-2,6,6-trimethylbicyclo[3.1.1]hept-3-yl]piperazine-1-carboximidamide] | 14 | 2.7 | 2.1 | 1.9 | – | – | –
(3S)-N-{3-[2-(4-chlorophenyl)ethyl]-4-oxo-2-piperidin-3-yl-3,4-dihydroquinazolin-7-yl}-3-methyl-5-oxo-N′-[(1S,2S,3S,5R)-2,6,6-trimethylbicyclo[3.1.1]hept-3-yl]piperazine-1-carboximdamide [Example 241] | – | – | – | – | 51 | 17 | 21
COc1ccc(CCn2c(-c3nnc[nH]3)nc3cc(NC(=N[C@H]4C[C@H]5C[C@@H]([C@@H]4C)C5(C)C)N4CCN[C@@H](CF)C4)ccc3c2=O)c(F)c1 [Example 252, (3R)-N-[3-[2-(2-fluoro-4-methoxyphenyl)ethyl]-4-oxo-2-(4H-1,2,4-triazol-3-yl)-3,4-dihydroquinazolin-7-yl]-3-(fluoromethyl)-N′-[(1S,2S,3S,5R)-2,6,6-trimethylbicyclo[3.1.1]hept-3-yl]piperazine-1-carboximidamide] | – | 8.4 | 16 | – | – | – | –
C[C@@H]1[C@@H](N=C(Nc2ccc3c(=O)n(CCc4ccc(Cl)cc4Cl)c(-c4cnccn4)nc3c2)N2CCN[C@@H](C(F)F)C2)C[C@H]2C[C@@H]1C2(C)C [Example 228, (3R)-N-{3-[2-(2,4-dichlorophenyl)ethyl]-4-oxo-2-pyrazin-2-yl-3,4-dihydroquinazolin-7-yl}-3-(difluoromethyl)-N′-[(1S,2S,3S,5R)-2,6,6-trimethylbicyclo[3.1.1]hept-3-yl]piperazine-1-carboximidamide] | – | – | 9.1 | – | – | – | –
COc1ccc(CCn2c(CN3CCN(C)CC3)nc3cc(NC(=N[C@H]4C[C@H]5C[C@@H]([C@@H]4C)C5(C)C)N4CC(=O)N[C@@H](C)C4)ccc3c2=O)c(F)c1 [Example 239, (3S)-N-{3-[2-(2-fluoro-4-methoxyphenyl)ethyl]-2-[(4-methylpiperazin-1-yl)methyl]-4-oxo-3,4-dihydroquinazolin-7-yl}-3-methyl-5-oxo-N-[(1S,2S,3S,5R)-2,6,6-trimethylbicyclo[3.1.1]hept-3-yl]piperazine-1-carboximidamide] | 3.6 | – | – | 4.5 | – | – | –
COc1ccc(CCn2c(-c3ccncc3)nc3cc(NC(=N[C@H]4C[C@H]5C[C@@H]([C@@H]4C)C5(C)C)N4CCN[C@@H](CF)C4)ccc3c2=O)c(F)c1 [Example 250] | 3 | 5.7 | 8.8 | 26 | – | – | –
COc1ccc(CCn2c(-c3cnccn3)nc3cc(NC(=N[C@H]4C[C@H]5C[C@@H]([C@@H]4C)C5(C)C)N4CCN[C@@H](C(F)F)C4)ccc3c2=O)c(F)c1 [Example 234, (3R)-3-(difluoromethyl)-N-{3-[2-(2-fluoro-4-methoxyphenyl)ethyl]-4-oxo-2-pyrazin-2-yl-3,4-dihydroquinazolin-7-yl}-N′-[(1S,2S,3S,5R)-2,6,6-trimethylbicyclo[3.1.1]hept-3-yl]piperazine-1-carboximidamide] | 2.6 | – | 4.9 | 3.5 | – | – | –
C[C@@H]1[C@@H](N=C(Nc2ccc3c(=O)n(CCc4ccc(Br)cc4)c(-c4cccnc4)nc3c2)N2CCN[C@@H](C(F)F)C2)C[C@H]2C[C@@H]1C2(C)C [Example 227, (3R)-N-{3-[2-(4-bromophenyl)ethyl]-4-oxo-2-pyridin-3-yl-3,4-dihydroquinazolin-7-yl}-3-(difluoromethyl)-N′-[(1S,2S,3S,5R)-2,6,6-trimethylbicyclo[3.1.1]hept-3-yl]piperazine-1-carboximidamide] | – | – | 9.4 | 3.9 | – | – | –

More lines, now with the values ahead:

half-life [1] [h] | half-life [2] [h] | half-life [3] [h] | half-life [4] [h] | Half-Lives (h) Brain (brain t1/2, 30 mg/kg oral gavage (PO)) [h] | Half-Lives (h) Liver (liver t1/2, 30 mg/kg oral gavage (PO)) [h] | Half-Lives (h) Plasma (plasma t1/2, 30 mg/kg oral gavage (PO)) [h] | Compound
– | 5.1 | 4.6 | 18.9 | – | – | – | C[C@@H]1[C@@H](/N=C(/Nc2ccc3c(=O)n(CCc4ccc(Cl)cc4Cl)cnc3c2)N2CC(O)C2)C[C@@H]2C[C@H]1C2(C)C [Example 337, N-{3-[2-(2,4-dichlorophenyl)ethyl]-4-oxo-3,4-dihydro-7-quinazolinyl}-3-hydroxy-N′-[(1R,2S,3S,5S)-2,6,6-trimethylbicyclo[3.1.1]hept-3-yl]-1-azetidinecarboximidamide]
4.9 | – | 9.5 | 3.3 | – | – | – | COc1ccc(CCn2c(-c3cccnc3)nc3cc(N/C(=N/[C@H]4C[C@@H]5C[C@H]([C@@H]4C)C5(C)C)N4C[C@@H](C)N(C#N)[C@@H](C)C4)ccc3c2=O)c(F)c1 [Example 295]
27 | 14 | 6.9 | 7.3 | – | – | – | COc1ccc(CCn2c(N3CCOCC3)nc3cc(NC(=N[C@H]4C[C@H]5C[C@@H]([C@@H]4C)C5(C)C)N4CCN[C@@H](CF)C4)ccc3c2=O)c(F)c1 [Example 253]
12 | – | 3 | 20 | – | – | – | C[C@@H]1[C@@H](N=C(Nc2ccc3c(=O)n(CCc4ccc(F)cc4)c(CF)nc3c2)N2CCN[C@@H](CF)C2)C[C@H]2C[C@@H]1C2(C)C [Example 257, (3R)-3-(fluoromethyl)-N-{2-(fluoromethyl)-3-[2-(4-fluorophenyl)ethyl]-4-oxo-3,4-dihydroquinazolin-7-yl}-N′-[(1 S,2S,3S,5R)-2,6,6-trimethylbicyclo[3.1.1]hept-3-yl]piperazine-1-carboximidamide]
11 | 9.6 | 20 | 15 | – | – | – | COc1ccc(CCn2c(-c3nccs3)nc3cc(NC(=N[C@H]4C[C@H]5C[C@@H]([C@@H]4C)C5(C)C)N4CCN[C@@H](CF)C4)ccc3c2=O)c(F)c1 [Example 254, (3R)-N-[3-[2-(2-fluoro-4-methoxyphenyl)ethyl]-4-oxo-2-(1,3-thiazol-2-yl)-3,4-dihydroquinazolin-7-yl]-3-(fluoromethyl)-N′-[(1 S,2S,3S,5R)-2,6,6-trimethylbicyclo[3.1.1]hept-3-yl]piperazine-1-carboximidamide]
– | – | 2.9 | 5.3 | – | – | – | COc1ccc(CCn2c(NC3CC3)nc3cc(NC(=N[C@H]4C[C@H]5C[C@@H]([C@@H]4C)C5(C)C)N4CCN[C@@H](CF)C4)ccc3c2=O)c(F)c1 [Example 258, (3R)-N-{2-(cyclopropylamino)-3-(2-(2-fluoro-4-methoxyphenyl)ethyl]-4-oxo-3,4-dihydroquinazolin-7-yl}-3-(fluoromethyl)-N′-[(1S,2S,3S,5R)-2,6,6-trimethylbicyclo[3.1.1]hept-3-yl]piperazine-1-carboximidamide]

Source: patent US7368453B2, “Quinazolinone compounds with reduced bioaccumulation” (Chiron Corporation, priority 2003, dated 2008)
